{"source": "patent US8192962B2", "about": "“Processes for detecting toxic substances” (Daikin Industries, Ltd., priority 2001, dated 2012)", "system": "Mitochondria-located protein genes", "test": "DNA chip mRNA expression in yeast, mitochondria-located protein genes (Table 2)", "format": "cell-based, Saccharomyces cerevisiae S288C", "details": "cells incubated two hours with the chemical substance", "procedure": "Yeast (Saccharomyces cerevisiae S288C (α SUC2mal mel gap2 CUP1)) were incubated at 25° C. on YPD medium (yeast extract 1%, polypepton 2%, glucose 2%). One of toxic chemical substances was added to the cells at logarithmic growth phase, and the cells were further incubated for two hours. Cells were cultured without any chemical substance in the same condition, and were used as control. Concentrations of the chemical substances were defined to inhibit the growth of the yeast but not lead to death.\nAfter completion of the incubation, the culture was centrifuged to collect the cells. To the cells, sodium acetate buffer (50 mM sodium acetate, 10 mM EDTA, 1% SDS) was added, and the mixture was shaken at 65° C. for five minutes, followed by returning to room temperature, and obtaining the supernatant, of which the procedures were repeated two times. To the supernatant, ½ amount of a solution of phenol/chloroform was added, and the mixture was centrifuged to give a supernatant, which was added with an equal amount of chloroform, and the mixture was centrifuged to give a supernatant. To the supernatant, an equal amount of isopropanol containing 0.3 M sodium acetate was added, and the mixture was allowed to stand at room temperature for 30 minutes, after which the mixture was centrifuged to give a sediment of the whole RNAs. Seventy % ethanol was added to the sediment, and the mixture was again centrifuged to give a sediment, which was then dried and dissolved in water. mRNA was isolated from the whole RNAs as followings. In view of the fact that a poly A chain is attached to the 3′ terminus of mRNA, a polynucleotide having a poly T structure which was immobilized on the surface of latex beads was used to trap the mRNA, and then the mRNA was washed and eluted with spine column (Oligotex-dT30<Super>mRNA Purification Kit, Takara). Reverse transcription of the mRNA was conducted with a reverse transcriptase (Super Script II Reverse Transcriptase; catalogue No. 18064-014, GibcoBRL) using fluorescence-labeled nucleotides to give cDNAs that were introduced with Cy3-dUTP or Cy5-dUTP during the reverse transcription.\nThe labeled cDNAs were dissolved in TE buffer (10mM Tris-HCl/1 mM EDTA, pH8.0), and the solution was dropped on the DNA chip containing the whole genes of yeast (DNA Chip Research Inc. Japan) so that the cDNAs were hybridized on the DNA chip at 65° C. for over 12 hours. The fluoresces intensity of the DNA chip was read with a scanner, and the ratio relative to the fluorescence intensity resulting from the absence of chemical substance was estimated as the following, which is shown in Tables 1 to 9: […]", "data": [{"compound": "Cl[C@H]1[C@H](Cl)[C@@H](Cl)[C@@H](Cl)[C@H](Cl)[C@H]1Cl", "note": "[(7), γ-hexachlorocyclohexane]", "values": [{"measurement": "The level of expressed mRNA in the presence of chemical substance/The level of expressed mRNA in the absence of chemical substance", "setting": "yeast gene YAL039C", "value": 1.0}, {"measurement": "The level of expressed mRNA in the presence of chemical substance/The level of expressed mRNA in the absence of chemical substance", "setting": "yeast gene YBL022C", "value": 1.0}, {"measurement": "The level of expressed mRNA in the presence of chemical substance/The level of expressed mRNA in the absence of chemical substance", "setting": "yeast gene YBL030C", "value": 0.9}, {"measurement": "The level of expressed mRNA in the presence of chemical substance/The level of expressed mRNA in the absence of chemical substance", "setting": "yeast gene YBL038W", "value": 8.0}, {"measurement": "The level of expressed mRNA in the presence of chemical substance/The level of expressed mRNA in the absence of chemical substance", "setting": "yeast gene YBL099W", "value": 0.9}, {"measurement": "The level of expressed mRNA in the presence of chemical substance/The level of expressed mRNA in the absence of chemical substance", "setting": "yeast gene YBR003W", "value": 1.1}, {"measurement": "The level of expressed mRNA in the presence of chemical substance/The level of expressed mRNA in the absence of chemical substance", "setting": "yeast gene YBR044C", "value": 1.5}, {"measurement": "The level of expressed mRNA in the presence of chemical substance/The level of expressed mRNA in the absence of chemical substance", "setting": "yeast gene YBR091C", "value": 1.0}, {"measurement": "The level of expressed mRNA in the presence of chemical substance/The level of expressed mRNA in the absence of chemical substance", "setting": "yeast gene YBR122C", "value": 2.0}, {"measurement": "The level of expressed mRNA in the presence of chemical substance/The level of expressed mRNA in the absence of chemical substance", "setting": "yeast gene YBR185C", "value": 1.2}, {"measurement": "The level of expressed mRNA in the presence of chemical substance/The level of expressed mRNA in the absence of chemical substance", "setting": "yeast gene YBR221C", "value": 1.5}, {"measurement": "The level of expressed mRNA in the presence of chemical substance/The level of expressed mRNA in the absence of chemical substance", "setting": "yeast gene YBR251W", "value": 1.4}, {"measurement": "The level of expressed mRNA in the presence of chemical substance/The level of expressed mRNA in the absence of chemical substance", "setting": "yeast gene YBR282W", "value": 1.2}, {"measurement": "The level of expressed mRNA in the presence of chemical substance/The level of expressed mRNA in the absence of chemical substance", "setting": "yeast gene YCL057W", "value": 1.4}, {"measurement": "The level of expressed mRNA in the presence of chemical substance/The level of expressed mRNA in the absence of chemical substance", "setting": "yeast gene YCR046C", "value": 1.2}, {"measurement": "The level of expressed mRNA in the presence of chemical substance/The level of expressed mRNA in the absence of chemical substance", "setting": "yeast gene YCR083W", "value": 1.8}, {"measurement": "The level of expressed mRNA in the presence of chemical substance/The level of expressed mRNA in the absence of chemical substance", "setting": "yeast gene YDL067C", "value": 0.8}, {"measurement": "The level of expressed mRNA in the presence of chemical substance/The level of expressed mRNA in the absence of chemical substance", "setting": "yeast gene YDL181W", "value": 1.1}, {"measurement": "The level of expressed mRNA in the presence of chemical substance/The level of expressed mRNA in the absence of chemical substance", "setting": "yeast gene YDL198C", "value": 1.0}, {"measurement": "The level of expressed mRNA in the presence of chemical substance/The level of expressed mRNA in the absence of chemical substance", "setting": "yeast gene YDR079W", "value": 1.3}, {"measurement": "The level of expressed mRNA in the presence of chemical substance/The level of expressed mRNA in the absence of chemical substance", "setting": "yeast gene YDR178W", "value": 0.6}, {"measurement": "The level of expressed mRNA in the presence of chemical substance/The level of expressed mRNA in the absence of chemical substance", "setting": "yeast gene YDR231C", "value": 1.7}, {"measurement": "The level of expressed mRNA in the presence of chemical substance/The level of expressed mRNA in the absence of chemical substance", "setting": "yeast gene YDR258C", "value": 3.9}, {"measurement": "The level of expressed mRNA in the presence of chemical substance/The level of expressed mRNA in the absence of chemical substance", "setting": "yeast gene YDR298C", "value": 1.0}, {"measurement": "The level of expressed mRNA in the presence of chemical substance/The level of expressed mRNA in the absence of chemical substance", "setting": "yeast gene YDR347W", "value": 1.2}, {"measurement": "The level of expressed mRNA in the presence of chemical substance/The level of expressed mRNA in the absence of chemical substance", "setting": "yeast gene YDR377W", "value": 1.1}, {"measurement": "The level of expressed mRNA in the presence of chemical substance/The level of expressed mRNA in the absence of chemical substance", "setting": "yeast gene YDR529C", "value": 0.5}, {"measurement": "The level of expressed mRNA in the presence of chemical substance/The level of expressed mRNA in the absence of chemical substance", "setting": "yeast gene YEL024W", "value": 0.7}, {"measurement": "The level of expressed mRNA in the presence of chemical substance/The level of expressed mRNA in the absence of chemical substance", "setting": "yeast gene YEL039C", "value": 0.6}, {"measurement": "The level of expressed mRNA in the presence of chemical substance/The level of expressed mRNA in the absence of chemical substance", "setting": "yeast gene YER178W", "value": 1.6}, {"measurement": "The level of expressed mRNA in the presence of chemical substance/The level of expressed mRNA in the absence of chemical substance", "setting": "yeast gene YFL016C", "value": 1.4}, {"measurement": "The level of expressed mRNA in the presence of chemical substance/The level of expressed mRNA in the absence of chemical substance", "setting": "yeast gene YGL018C", "value": 1.1}, {"measurement": "The level of expressed mRNA in the presence of chemical substance/The level of expressed mRNA in the absence of chemical substance", "setting": "yeast gene YGL187C", "value": 0.6}, {"measurement": "The level of expressed mRNA in the presence of chemical substance/The level of expressed mRNA in the absence of chemical substance", "setting": "yeast gene YGL191W", "value": 1.0}, {"measurement": "The level of expressed mRNA in the presence of chemical substance/The level of expressed mRNA in the absence of chemical substance", "setting": "yeast gene YGR008C", "value": 3.7}, {"measurement": "The level of expressed mRNA in the presence of chemical substance/The level of expressed mRNA in the absence of chemical substance", "setting": "yeast gene YGR028W", "value": 2.1}, {"measurement": "The level of expressed mRNA in the presence of chemical substance/The level of expressed mRNA in the absence of chemical substance", "setting": "yeast gene YGR062C", "value": 1.3}, {"measurement": "The level of expressed mRNA in the presence of chemical substance/The level of expressed mRNA in the absence of chemical substance", "setting": "yeast gene YGR076C", "value": 1.7}, {"measurement": "The level of expressed mRNA in the presence of chemical substance/The level of expressed mRNA in the absence of chemical substance", "setting": "yeast gene YGR082W", "value": 0.9}, {"measurement": "The level of expressed mRNA in the presence of chemical substance/The level of expressed mRNA in the absence of chemical substance", "setting": "yeast gene YGR174C", "value": 1.0}, {"measurement": "The level of expressed mRNA in the presence of chemical substance/The level of expressed mRNA in the absence of chemical substance", "setting": "yeast gene YGR244C", "value": 3.9}, {"measurement": "The level of expressed mRNA in the presence of chemical substance/The level of expressed mRNA in the absence of chemical substance", "setting": "yeast gene YHR008C", "value": 0.7}, {"measurement": "The level of expressed mRNA in the presence of chemical substance/The level of expressed mRNA in the absence of chemical substance", "setting": "yeast gene YIL155C", "value": 2.2}, {"measurement": "The level of expressed mRNA in the presence of chemical substance/The level of expressed mRNA in the absence of chemical substance", "setting": "yeast gene YJL096W", "value": 1.7}, {"measurement": "The level of expressed mRNA in the presence of chemical substance/The level of expressed mRNA in the absence of chemical substance", "setting": "yeast gene YJL102W", "value": 0.6}, {"measurement": "The level of expressed mRNA in the presence of chemical substance/The level of expressed mRNA in the absence of chemical substance", "setting": "yeast gene YJL133W", "value": 0.5}, {"measurement": "The level of expressed mRNA in the presence of chemical substance/The level of expressed mRNA in the absence of chemical substance", "setting": "yeast gene YJL166W", "value": 0.8}, {"measurement": "The level of expressed mRNA in the presence of chemical substance/The level of expressed mRNA in the absence of chemical substance", "setting": "yeast gene YJL180C", "value": 1.6}, {"measurement": "The level of expressed mRNA in the presence of chemical substance/The level of expressed mRNA in the absence of chemical substance", "setting": "yeast gene YJR045C", "value": 1.0}, {"measurement": "The level of expressed mRNA in the presence of chemical substance/The level of expressed mRNA in the absence of chemical substance", "setting": "yeast gene YJR077C", "value": 0.7}]}]}
